Assay results published in publication PMC5845353, “The selective cathepsin K inhibitor MIV-711 attenuates joint pathology in experimental animal models of osteoarthritis” (Journal of Translational Medicine, 2018).
Several values for one entry are separate records, joined by “and”; a condition that tells them apart may be missing. Equal entries are not always repeated.

Columns and labels:
[1] = biological target: rabbit cathepsin K enzyme; parameters: method as in PMID 29743078; conditions: read-out: Ki against rabbit cathepsin K enzyme; cited from earlier work
[2] = Plasma concentrations of MIV-711 in ACLT rabbits (LC-MS/MS); format: in vivo; conditions: rabbit plasma
Procedure: Starting 1 week after sham operation or ACLT, animals were dosed daily for 7 weeks by oral gavage with either MIV-711 (synthesized by Medivir and given as a suspension in 1% Methocel A4C in water) or vehicle (1% Methocel A4C in water) at a dose volume of 4 mL/kg. The four treatment groups (n = 7 in each group) were: (1) sham + vehicle; (2) ACLT + vehicle; (3) ACLT + MIV-711, 30 µmol/kg (low dose) and (4) ACLT + MIV-711, 100 µmol/kg (high dose).
Twelve blood samples of 1 mL each were collected from each animal for determination of MIV-711 concentrations in a staggered manner to cover as many time points as possible. The blood samples were collected on Day 1, Day 10 and during Week 4 and Week 7. The samples were collected in EDTA coated tubes and kept on ice. The plasma was separated by centrifugation (2000g for 3–5 min at 4 °C) and then frozen and kept at − 70 °C until analysis.
To measure MIV-711 concentrations, 10–50 µL of plasma or synovial fluid was mixed with 30–150 µL of acetonitrile, samples were centrifuged (10 min, 20,000g, 7 °C) and 5 µL of the supernatant was injected onto the LC–MS/MS system. The lower limit of quantification (LLOQ) was 1 nmol/L.

[3] = test system: dogs subjected to partial medial meniscectomy; experiment: Dog partial medial meniscectomy study, sclerosis of subchondral bone and bone area; format: in vivo
Text: Sclerosis of subchondral bone (an indication of altered load-bearing) was described and documented for femur using a comparison of medial to lateral, but was not included in the overall cartilage degeneration scores. This parameter was scored based on percent width of the medial femur with obviously thickened subchondral bone according to the following criteria: 0=normal 1=up to 10% of femur width has thickened trabeculae 2=11-30 % of femur width has thickened trabeculae 3=31-60 % of femur width has thickened trabeculae 4=61-90 % of femur width has thickened trabeculae 5=>90% of femur width has thickened trabeculae An additional measure of bone area was performed as follows: The photo file was opened and a fixed segment of 1000 by 400 pixels was selected with the bottom left and right corners touching the tidemark: The selected segment was opened in a new file and segmented into fourths: Black lines were drawn on the three segmenting lines in areas of no bone: Lengths of each individual drawn segment were summed per line for a total length of area of no bone, then divided by the total length of the image and calculated into a percent. Percent of no bone was calculated for each of the three segmented lines and then averaged for a mean percent of no bone for the image.

[4] = test system: dogs subjected to partial medial meniscectomy; experiment: Dog study, principal components analysis of exposure, biomarker, macro- and microscopic data; format: in vivo; conditions: 30 µmol/kg, p < 0.001
Procedure: Biomarker data was evaluated by two-way ANOVA, followed by Bonferroni’s or Dunnett’s correction for multiple comparisons when appropriate, using GraphPad Prism, version 6 (San Diego, CA). Synovial MIV-711 exposure data was evaluated by Student’s paired t-test. Data from µCT in rabbits was evaluated by one-way ANOVA followed by Dunnett’s correction for multiple comparisons (GraphPad). Macroscopic parameters in dogs were compared using Student’s unpaired t-test. The exposure data, biomarker data and macro- and microscopic data from the dog study were also imported into R (R Foundation for Statistical Computing Version 2.15.0, Vienna, Austria). A principal components analysis was performed using procedure prcomp. Derived scores were subjected to t-tests in Microsoft Excel 2007. Data are expressed as mean ± SEM, n = number of animals. A p-value < 0.05 was considered statistically significant.

[5] = test system: dogs subjected to partial medial meniscectomy; experiment: Dog partial medial meniscectomy study, cartilage area image analysis; format: in vivo
Procedure: In order to quantitate and compare the cartilage matrix preservation, cartilage area measurements were taken from the most severely affected section of each animal. In this section, the most severely affected area - generally zone 2 - is analyzed at 25x magnification. Photomicrographs were taken with a digital microscope camera, and analyzed with appropriate software. The following measurements were taken:
Total area from the tidemark to the surface (or projected surface in degenerated areas), extending from the axial to abaxial aspects of the medial tibial plateau zones in the most severely affected area (generally zone 2)
Area of non-viable matrix (cartilage with less than 50% chondrocytes, proteoglycan, and intact collagen) and no matrix within the total area of zone 2 or most severely affected area in the photomicrograph
Area of no matrix within the total area being analyzed
The area of non-viable matrix in zone under analysis was subtracted from the total area in the photomicrograph to get the area of viable matrix in this area, and the area of no matrix was subtracted from the total area to get the area of any matrix (collagen matrix with or without chondrocytes and proteoglycan). These two values were then compared back to the total area to derive the % viable area and the % any matrix in this area of greatest lesion severity, which were compared between groups.

[6] = single oral administration 30 µmol/kg
[7] = single oral administration 100 µmol/kg
[8] = dog partial medial meniscectomy, group Mean
[9] = dog partial medial meniscectomy, versus Vehicle group
[10] = individual animals of MIV-711 group, per section level (first line of animal, L2, L3)

**Q.** Which results are given for `C#C[C@@H]1CN(C(=O)[C@H](CC(C)C)NC(=O)c2ccc(-c3nc(N4CCN(C)CC4)sc3F)cc2)[C@@H]2C(=O)CO[C@H]12` [MIV-711]?
**A.** Ki [1]: 3.3 nM; AUC0–24 h [2, 6]: 0.78 µM·h; Cmax [2, 6]: 0.25 µM; AUC0–24 h [2, 7]: 7.0 µM·h; Cmax [2, 7]: 1.8 µM; Bone Score ([3]; MIV-711 group mean, sclerosis of subchondral bone): 3.07; % inhibition, Bone Score ([3]; MIV-711 group vs vehicle): 4%; Percent Length of no Bone, LFC Mean [3, 8]: 57%; Percent Length of no Bone, LFC Site 1 [3, 8]: 59%; Percent Length of no Bone, LFC Site 2 [3, 8]: 58%; Percent Length of no Bone, LFC Site 3 [3, 8]: 54%; Percent Length of no Bone, MFC Mean [3, 8]: 39%; Percent Length of no Bone, MFC Site 1 [3, 8]: 42%; Percent Length of no Bone, MFC Site 2 [3, 8]: 39%; Percent Length of no Bone, MFC Site 3 [3, 8]: 36%; Percent Length of no Bone, Overall Mean [3, 8]: 48%; Percent Length of no Bone, LFC Site 2 ([3]; dog partial medial meniscectomy, individual animal, LFC site 2): 50% and 62% and 55% and 63% and 66% and 57% and 51% and 54% and 59% and 45% and 60% and 72%; Percent Length of no Bone, LFC Site 3 ([3]; dog partial medial meniscectomy, individual animal, LFC site 3): 42% and 48% and 49% and 64% and 60% and 58% and 45% and 59% and 47% and 46% and 56% and 71% and 52%; Percent Length of no Bone, MFC Site 1 ([3]; dog partial medial meniscectomy, individual animal, MFC site 1): 47% and 50% and 24% and 35% and 52% and 38% and 36% and 57% and 44% and 48% and 51% and 21%; Percent Length of no Bone, MFC Site 2 ([3]; dog partial medial meniscectomy, individual animal, MFC site 2): 32% and 42% and 21% and 39% and 46% and 38% and 52% and 37% and 34% and 51% and 27% and 57% and 26% and 36%; Percent Length of no Bone, MFC Site 3 ([3]; dog partial medial meniscectomy, individual animal, MFC site 3): 34% and 33% and 21% and 36% and 51% and 24% and 32% and 22% and 49% and 44% and 41% and 40%; Percent Length of no Bone, LFC Site 1 ([3]; dog partial medial meniscectomy, individual animal, lateral femoral condyle site 1): 58% and 64% and 49% and 53% and 63% and 54% and 70% and 57% and 61% and 46% and 66% and 67%; Percent Length of no Bone, LFC Mean ([3]; dog partial medial meniscectomy, individual animal, mean of LFC sites 1-3): 50% and 58% and 51% and 60% and 63% and 56% and 55% and 54% and 52% and 70%; Percent Length of no Bone, MFC Mean ([3]; dog partial medial meniscectomy, individual animal, mean of MFC sites 1-3): 38% and 42% and 22% and 37% and 50% and 33% and 51% and 35% and 30% and 52% and 46%; Percent Length of no Bone, Overall Mean ([3]; dog partial medial meniscectomy, individual animal, overall mean LFC and MFC): 44% and 50% and 37% and 48% and 56% and 45% and 53% and 54% and 46% and 49%; % inhibition of Percent Length of no Bone, LFC Mean [3, 9]: 1%; % inhibition of Percent Length of no Bone, LFC Site 1 [3, 9]: -4%; % inhibition of Percent Length of no Bone, LFC Site 2 [3, 9]: 2%; % inhibition of Percent Length of no Bone, LFC Site 3 [3, 9]: 6%; % inhibition of Percent Length of no Bone, MFC Mean [3, 9]: -10%; % inhibition of Percent Length of no Bone, MFC Site 1 [3, 9]: -12%; % inhibition of Percent Length of no Bone, MFC Site 2 [3, 9]: 1%; % inhibition of Percent Length of no Bone, MFC Site 3 [3, 9]: -21%; % inhibition of Percent Length of no Bone, Overall Mean [3, 9]: -3%; effects on subchondral bone sclerosis and bone area at the microscopic level ([3]; dog, 30 µmol/kg): no significant effects; Bone Score ([3]; individual dogs of MIV-711 group, scoring of sclerosis of subchondral bone): 5 and 3 and 4 and 2 and 1; principal component Score 2 (mainly biomarker data), vehicle vs MIV-711-treated groups [4]: significantly different; Cartilage Area: % Any Matrix Area ([5]; group Mean): 96%; Cartilage Area: % Viable Area ([5]; group Mean): 88%; Cartilage Area: % Any Matrix Area [5, 10]: 100%; Cartilage Area: % Viable Area [5, 10]: 100%; Percent Inhibition, % Any Matrix Area ([5]; versus Vehicle): -11%; Percent Inhibition, % Viable Area ([5]; versus Vehicle): 8%
